Biological target: T1, Recombinant human IKKβ (residues 1-737) (Homo sapiens, UniProt O14920)
T1 construct: Recombinant human IKKβ (residues 1-737); GST (C); made in house
T1 sequence (O14920 1-737): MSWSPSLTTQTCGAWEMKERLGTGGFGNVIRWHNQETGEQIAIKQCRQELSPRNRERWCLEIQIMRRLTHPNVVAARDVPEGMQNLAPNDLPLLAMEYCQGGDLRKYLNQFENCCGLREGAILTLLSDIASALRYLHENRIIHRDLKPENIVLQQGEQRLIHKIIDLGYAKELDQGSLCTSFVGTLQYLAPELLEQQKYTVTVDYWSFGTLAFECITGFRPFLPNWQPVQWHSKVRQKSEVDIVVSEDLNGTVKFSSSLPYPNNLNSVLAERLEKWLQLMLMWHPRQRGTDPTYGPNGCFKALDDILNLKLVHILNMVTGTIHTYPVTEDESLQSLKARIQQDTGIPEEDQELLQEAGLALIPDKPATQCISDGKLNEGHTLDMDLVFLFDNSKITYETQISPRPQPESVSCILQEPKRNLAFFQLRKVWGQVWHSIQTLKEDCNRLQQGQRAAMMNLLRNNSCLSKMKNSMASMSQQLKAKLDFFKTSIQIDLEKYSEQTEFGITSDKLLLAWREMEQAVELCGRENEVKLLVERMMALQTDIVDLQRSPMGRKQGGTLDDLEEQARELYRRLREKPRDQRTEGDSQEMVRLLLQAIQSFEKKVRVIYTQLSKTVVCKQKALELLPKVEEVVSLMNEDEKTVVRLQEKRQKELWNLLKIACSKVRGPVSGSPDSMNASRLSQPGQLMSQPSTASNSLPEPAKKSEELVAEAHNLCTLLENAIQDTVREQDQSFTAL
Test: IKK2 Assay (TR-FRET)
Assay type: biochemical
Conditions: activity against IKK2, IKK2 5 nM, GST-IκBα substrate 25 nM, ATP 1 μM, 30 minutes at room temperature
Protocol: Recombinant human IKKβ (residues 1-737) was expressed in baculovirus as a C-terminal GST-tagged fusion protein, and its activity was assessed using a time-resolved fluorescence resonance energy transfer (TR-FRET) assay. Briefly, IKK2 (5 nM final) diluted in assay buffer (50 mM HEPES, 10 mM MgCl2, 1 mM CHAPS pH 7.4 with 1 mM DTT and 0.01% w/v BSA) was added to wells containing various concentrations of compound or DMSO vehicle (3% final). The reaction was initiated by the addition of GST-IκBα substrate (25 nM final)/ATP (1 μM final), in a total volume of 30 μL. The reaction was incubated for 30 minutes at room temperature, then terminated by the addition of 15 μL of 50 mM EDTA. Detection reagent (15 μl) in buffer (100 mM HEPES pH 7.4, 150 mM NaCl and 0.1% w/v BSA) containing antiphosphoserine-licBa-32/36 monoclonal antibody 12C2 (Cell Signalling Technology, Beverly Mass., USA) labelled with W-1024 europium chelate (Wallac OY, Turku, Finland), and an APC-labelled anti-GST antibody (Prozyme, San Leandro, Calif., USA) was added and the reaction was further incubated for 60 minutes at room temperature. The degree of phosphorylation of GST-IκBα was measured using a Packard Discovery plate reader (Perkin-Elmer Life Sciences, Pangbourne, UK) as a ratio of specific 665 nm energy transfer signal to reference europium 620 nm signal.

## CCS(=O)(=O)N1CCC(c2c[nH]c3c(C(N)=O)cc(S(=O)(=O)c4ccc(C)cc4)cc23)CC1 [Example 48, 3-[1-(ethylsulfonyl)-4-piperidinyl]-5-[(4-methylphenyl)sulfonyl]-1H-indole-7-carboxamide]
  IC50: 25.1 µM

— US20080269291A1, “Chemical Compounds” (priority 2005, published 2008)
